Reference: PubChem BioAssay (NCI)
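Protocol summary: plate cells (96-well), add compound at 5 concentrations, incubate 48 h, interpolate endpoints linearly. GI50 = concentration required for 50% inhibition of growth. TGI denotes the concentration required for complete inhibition of growth.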

What was measured:
Assay in all cases: inhibition of tumour cell growth, NCI panel, 48 h
[1] = test system: 786-0 renal
[2] = test system: A498 renal
[3] = test system: A549 NSCLC
[4] = test system: ACHN renal
[5] = test system: BT-549 breast
[6] = test system: CAKI-1 renal
[7] = test system: COLO 205 colon
[8] = test system: DU-145 prostate
[9] = test system: HCC-2998 colon
[10] = test system: HCT-116 colon
[11] = test system: HCT-15 colon
[12] = test system: HL-60(TB) leukemia
[13] = test system: HOP-62 NSCLC
[14] = test system: HOP-92 NSCLC
[15] = test system: HS 578T breast
[16] = test system: HT29 colon
[17] = test system: IGROV1 ovarian
[18] = test system: K-562 leukemia
[19] = test system: KM12 colon
[20] = test system: LOX IMVI melanoma
[21] = test system: M14 melanoma
[22] = test system: MALME-3M melanoma
[23] = test system: MCF7 breast
[24] = test system: MDA-MB-231 breast
[25] = test system: MDA-MB-435
[26] = test system: MOLT-4 leukemia
[27] = test system: NCI-H226 lung
[28] = test system: NCI-H23 lung
[29] = test system: NCI-H460 lung
[30] = test system: NCI-H522 lung
[31] = test system: NCI/ADR-RES ovarian
[32] = test system: OVCAR-3 ovarian
[33] = test system: OVCAR-4 ovarian
[34] = test system: OVCAR-5 ovarian
[35] = test system: OVCAR-8 ovarian
[36] = test system: PC-3 prostate
[37] = test system: RPMI-8226 leukemia
[38] = test system: RXF 393 renal
[39] = test system: SF-268 CNS
[40] = test system: SF-295 CNS
[41] = test system: SF-539 CNS
[42] = test system: SK-MEL-2 melanoma
[43] = test system: SK-MEL-28 melanoma
[44] = test system: SK-MEL-5 melanoma
[45] = test system: SK-OV-3 ovarian
[46] = test system: SN12C renal
[47] = test system: SNB-19 CNS
[48] = test system: SNB-75 CNS
[49] = test system: SR leukemia
[50] = test system: SW-620 colon
[51] = test system: T-47D breast
[52] = test system: TK-10 renal
[53] = test system: U251 CNS
[54] = test system: UACC-257 melanoma
[55] = test system: UACC-62 melanoma
[56] = test system: UO-31 renal

COc1cc(-c2nn(-c3cccc(NC(=O)Nc4cccc(C(F)(F)F)c4)c3)cc2-c2ccncc2)ccc1Cl
GI50 [1]: 1120 nM | TGI [1]: 3170 nM | GI50 [2]: 609 nM | TGI [2]: 3030 nM | GI50 [3]: 723 nM | TGI [3]: 14500 nM | GI50 [4]: 371 nM | TGI [4]: 13600 nM | GI50 [5]: 1230 nM | TGI [5]: 4030 nM | GI50 [6]: 952 nM | TGI [6]: 3100 nM | GI50 [7]: 588 nM | TGI [7]: 1430 nM | GI50 [8]: 1360 nM | TGI [8]: 22800 nM | GI50 [9]: 1380 nM | TGI [9]: 4710 nM | GI50 [10]: 608 nM | TGI [10]: 6090 nM | GI50 [11]: 957 nM | TGI [11]: 10800 nM | GI50 [12]: 756 nM | TGI [12]: 10100 nM | GI50 [13]: 923 nM | TGI [13]: 2880 nM | GI50 [14]: 251 nM | TGI [14]: 921 nM | GI50 [15]: 1360 nM | TGI [15]: 16600 nM | GI50 [16]: 775 nM | TGI [16]: 2090 nM | GI50 [17]: 920 nM | TGI [17]: 3240 nM | GI50 [18]: 386 nM | TGI [18]: 12100 nM | GI50 [19]: 422 nM | TGI [19]: 2020 nM | GI50 [20]: 789 nM | TGI [20]: 1650 nM | GI50 [21]: 759 nM | TGI [21]: 2160 nM | GI50 [22]: 845 nM | TGI [22]: 2180 nM | GI50 [23]: 609 nM | TGI [23]: 4700 nM | GI50 [24]: 813 nM | TGI [24]: 2230 nM | GI50 [25]: 794 nM | TGI [25]: 1980 nM | GI50 [26]: 936 nM | TGI [26]: 3480 nM | GI50 [27]: 1210 nM | TGI [27]: 14800 nM | GI50 [28]: 769 nM | TGI [28]: 3020 nM | GI50 [29]: 478 nM | TGI [29]: 2280 nM | GI50 [30]: 451 nM | TGI [30]: 1870 nM | GI50 [31]: 696 nM | TGI [31]: 3580 nM | GI50 [32]: 343 nM | TGI [32]: 1590 nM | GI50 [33]: 996 nM | TGI [33]: 13800 nM | GI50 [34]: 1520 nM | TGI [34]: 8410 nM | GI50 [35]: 739 nM | TGI [35]: 2700 nM | GI50 [36]: 244 nM | TGI [36]: 1550 nM | GI50 [37]: 241 nM | TGI [37]: 1830 nM | GI50 [38]: 798 nM | TGI [38]: 1950 nM | GI50 [39]: 1280 nM | TGI [39]: 5010 nM | GI50 [40]: 229 nM | TGI [40]: 926 nM | GI50 [41]: 958 nM | TGI [41]: 2560 nM | GI50 [42]: 935 nM | TGI [42]: 1940 nM | GI50 [43]: 1060 nM | TGI [43]: 3910 nM | GI50 [44]: 622 nM | TGI [44]: 1270 nM | GI50 [45]: 1700 nM | TGI [45]: 15400 nM | GI50 [46]: 817 nM | TGI [46]: 10500 nM | GI50 [47]: 999 nM | TGI [47]: 6260 nM | GI50 [48]: 1130 nM | TGI [48]: 4100 nM | GI50 [49]: 858 nM | TGI [49]: 2620 nM | GI50 [50]: 767 nM | TGI [50]: 9430 nM | GI50 [51]: 638 nM | TGI [51]: 11400 nM | GI50 [52]: 1060 nM | TGI [52]: 9260 nM | GI50 [53]: 467 nM | TGI [53]: 1230 nM | GI50 [54]: 746 nM | TGI [54]: 2090 nM | GI50 [55]: 627 nM | TGI [55]: 1480 nM | GI50 [56]: 747 nM | TGI [56]: 3040 nM
